For 38 compounds, EC50 results are on record in BindingDB's records for doi:10.1016/s0960-894x(03)00205-1 (Abbott Laboratories, 2003).

SMILES strings stand for the structures.

The experiment can be described thus: Potassium channel opening activity in vitro using LtK cells transfected with Kir6.2/SUR2B exon 17.
By EC50 is commonly meant the concentration at which the effect is half-maximal. `O=C(Nc1ccc(Cl)cc1)Nc1c(C(O)(C(F)(F)F)C(F)(F)F)ccc2ccccc12` [1-(4-Chloro-phenyl)-3-[2-(2,2,2-trifluoro-1-hydroxy-1-trifluoromethyl-ethyl)-naphthalen-1-yl]-urea] displayed an EC50 of 276 nM. Regarding `O=C(NCCCCCCCl)Nc1c(C(O)(C(F)(F)F)C(F)(F)F)ccc2ccccc12` [1-(6-Chloro-hexyl)-3-[2-(2,2,2-trifluoro-1-hydroxy-1-trifluoromethyl-ethyl)-naphthalen-1-yl]-urea], the EC50 is 4840 nM. This EC50 lies about 18-fold higher than the previous one.

In the case of `O=C(Nc1c(C(O)(C(F)(F)F)C(F)(F)F)ccc2ccccc12)c1cccc(Cl)c1Cl` [2,3-Dichloro-N-[2-(2,2,2-trifluoro-1-hydroxy-1-trifluoromethyl-ethyl)-naphthalen-1-yl]-benzamide], the EC50 was > 10000 nM. Regarding `O=C(Nc1c(C(O)(C(F)(F)F)C(F)(F)F)ccc2ccccc12)c1ccccc1Cl` [2-Chloro-N-[2-(2,2,2-trifluoro-1-hydroxy-1-trifluoromethyl-ethyl)-naphthalen-1-yl]-benzamide], a half-maximal effect (EC50) was put at 2040 nM. Turning to `O=C(CC1CCCC1)Nc1c(C(O)(C(F)(F)F)C(F)(F)F)ccc2ccccc12` [2-Cyclopentyl-N-[2-(2,2,2-trifluoro-1-hydroxy-1-trifluoromethyl-ethyl)-naphthalen-1-yl]-acetamide], the EC50 came out at 81 nM. In turn, `CCC(CC)C(=O)Nc1c(C(O)(C(F)(F)F)C(F)(F)F)ccc2ccccc12` [2-Ethyl-N-[2-(2,2,2-trifluoro-1-hydroxy-1-trifluoromethyl-ethyl)-naphthalen-1-yl]-butyramide] had an EC50 of 4340 nM. With `Cc1ccccc1C(=O)Nc1c(C(O)(C(F)(F)F)C(F)(F)F)ccc2ccccc12` [2-Methyl-N-[2-(2,2,2-trifluoro-1-hydroxy-1-trifluoromethyl-ethyl)-naphthalen-1-yl]-benzamide] the figure was 5550 nM. The result for `CCC(C)C(=O)Nc1c(C(O)(C(F)(F)F)C(F)(F)F)ccc2ccccc12` (stereo not drawn) [2-Methyl-N-[2-(2,2,2-trifluoro-1-hydroxy-1-trifluoromethyl-ethyl)-naphthalen-1-yl]-butyramide] reads 177000 nM; that for `CCCC(C)C(=O)Nc1c(C(O)(C(F)(F)F)C(F)(F)F)ccc2ccccc12` (stereo not drawn) [2-Methyl-pentanoic acid [2-(2,2,2-trifluoro-1-hydroxy-1-trifluoromethyl-ethyl)-naphthalen-1-yl]-amide], > 10000 nM.

For the compound `O=C(Nc1c(C(O)(C(F)(F)F)C(F)(F)F)ccc2ccccc12)c1ccc(Cl)c(Cl)c1` [3,4-Dichloro-N-[2-(2,2,2-trifluoro-1-hydroxy-1-trifluoromethyl-ethyl)-naphthalen-1-yl]-benzamide], the EC50 was determined as 194 nM. On to `O=C(Nc1c(C(O)(C(F)(F)F)C(F)(F)F)ccc2ccccc12)c1cc(Cl)cc(Cl)c1` [3,5-Dichloro-N-[2-(2,2,2-trifluoro-1-hydroxy-1-trifluoromethyl-ethyl)-naphthalen-1-yl]-benzamide], for which it took 306 nM to reach a half-maximal effect (EC50). Compared with the last compound, the EC50 is about 1.6-fold higher. The compound `O=C(Nc1c(C(O)(C(F)(F)F)C(F)(F)F)ccc2ccccc12)c1cccc(Br)c1` [3-Bromo-N-[2-(2,2,2-trifluoro-1-hydroxy-1-trifluoromethyl-ethyl)-naphthalen-1-yl]-benzamide] returned an EC50 of 80 nM. With `O=C(Nc1c(C(O)(C(F)(F)F)C(F)(F)F)ccc2ccccc12)c1cccc(Cl)c1` [3-Chloro-N-[2-(2,2,2-trifluoro-1-hydroxy-1-trifluoromethyl-ethyl)-naphthalen-1-yl]-benzamide] the figure was 98 nM; with `N#Cc1cccc(C(=O)Nc2c(C(O)(C(F)(F)F)C(F)(F)F)ccc3ccccc23)c1` [3-Cyano-N-[2-(2,2,2-trifluoro-1-hydroxy-1-trifluoromethyl-ethyl)-naphthalen-1-yl]-benzamide], 12 nM. The result for `O=C(Nc1c(C(O)(C(F)(F)F)C(F)(F)F)ccc2ccccc12)c1cccc(F)c1` [3-Fluoro-N-[2-(2,2,2-trifluoro-1-hydroxy-1-trifluoromethyl-ethyl)-naphthalen-1-yl]-benzamide] reads 44 nM. Turning to `COc1cccc(C(=O)Nc2c(C(O)(C(F)(F)F)C(F)(F)F)ccc3ccccc23)c1` [3-Methoxy-N-[2-(2,2,2-trifluoro-1-hydroxy-1-trifluoromethyl-ethyl)-naphthalen-1-yl]-benzamide], the EC50 came out at 185 nM. With `Cc1cccc(C(=O)Nc2c(C(O)(C(F)(F)F)C(F)(F)F)ccc3ccccc23)c1` [3-Methyl-N-[2-(2,2,2-trifluoro-1-hydroxy-1-trifluoromethyl-ethyl)-naphthalen-1-yl]-benzamide] the figure was 23 nM. The result for `CC(C)=CC(=O)Nc1c(C(O)(C(F)(F)F)C(F)(F)F)ccc2ccccc12` [3-Methyl-but-2-enoic acid [2-(2,2,2-trifluoro-1-hydroxy-1-trifluoromethyl-ethyl)-naphthalen-1-yl]-amide] reads 46 nM; that for `O=C(Nc1c(C(O)(C(F)(F)F)C(F)(F)F)ccc2ccccc12)c1cccc([N+](=O)[O-])c1` [3-Nitro-N-[2-(2,2,2-trifluoro-1-hydroxy-1-trifluoromethyl-ethyl)-naphthalen-1-yl]-benzamide], 117 nM; that for `O=C(CCc1ccccc1)Nc1c(C(O)(C(F)(F)F)C(F)(F)F)ccc2ccccc12` [3-Phenyl-N-[2-(2,2,2-trifluoro-1-hydroxy-1-trifluoromethyl-ethyl)-naphthalen-1-yl]-propionamide], 1750 nM. With `O=C(Nc1c(C(O)(C(F)(F)F)C(F)(F)F)ccc2ccccc12)c1ccc(Br)cc1` [4-Bromo-N-[2-(2,2,2-trifluoro-1-hydroxy-1-trifluoromethyl-ethyl)-naphthalen-1-yl]-benzamide] the figure was 47 nM; with `O=C(Nc1c(C(O)(C(F)(F)F)C(F)(F)F)ccc2ccccc12)c1ccc(Cl)cc1` [4-Chloro-N-[2-(2,2,2-trifluoro-1-hydroxy-1-trifluoromethyl-ethyl)-naphthalen-1-yl]-benzamide], 570 nM. `O=C(Nc1c(C(O)(C(F)(F)F)C(F)(F)F)ccc2ccccc12)c1ccc(F)cc1` [4-Fluoro-N-[2-(2,2,2-trifluoro-1-hydroxy-1-trifluoromethyl-ethyl)-naphthalen-1-yl]-benzamide]: the midpoint of the response, the EC50, lay at 70 nM. `O=C(Nc1c(C(O)(C(F)(F)F)C(F)(F)F)ccc2ccccc12)c1ccc(I)cc1` [4-Iodo-N-[2-(2,2,2-trifluoro-1-hydroxy-1-trifluoromethyl-ethyl)-naphthalen-1-yl]-benzamide] had an EC50 of 154 nM.

The compound `COc1ccc(C(=O)Nc2c(C(O)(C(F)(F)F)C(F)(F)F)ccc3ccccc23)cc1` [4-Methoxy-N-[2-(2,2,2-trifluoro-1-hydroxy-1-trifluoromethyl-ethyl)-naphthalen-1-yl]-benzamide] came in with an EC50 of 417 nM. As for `Cc1ccc(C(=O)Nc2c(C(O)(C(F)(F)F)C(F)(F)F)ccc3ccccc23)cc1` [4-Methyl-N-[2-(2,2,2-trifluoro-1-hydroxy-1-trifluoromethyl-ethyl)-naphthalen-1-yl]-benzamide], the EC50 was 76 nM. `CC(C)CCC(=O)Nc1c(C(O)(C(F)(F)F)C(F)(F)F)ccc2ccccc12` [4-Methyl-pentanoic acid [2-(2,2,2-trifluoro-1-hydroxy-1-trifluoromethyl-ethyl)-naphthalen-1-yl]-amide] yielded a concentration giving a half-maximal response (EC50) of 49 nM. Consider `O=C(Nc1c(C(O)(C(F)(F)F)C(F)(F)F)ccc2ccccc12)c1cc2ccccc2s1` [Benzo[b]thiophene-2-carboxylic acid [2-(2,2,2-trifluoro-1-hydroxy-1-trifluoromethyl-ethyl)-naphthalen-1-yl]-amide], for which the EC50 was > 10000 nM.

Consider `O=C(Nc1c(C(O)(C(F)(F)F)C(F)(F)F)ccc2ccccc12)c1ccc(-c2ccccc2)cc1` [Biphenyl-4-carboxylic acid [2-(2,2,2-trifluoro-1-hydroxy-1-trifluoromethyl-ethyl)-naphthalen-1-yl]-amide], for which the EC50 is > 10000 nM. The result for `C/C=C/C(=O)Nc1c(C(O)(C(F)(F)F)C(F)(F)F)ccc2ccccc12` [But-2-enoic acid [2-(2,2,2-trifluoro-1-hydroxy-1-trifluoromethyl-ethyl)-naphthalen-1-yl]-amide] reads 72 nM; that for `O=C(Nc1c(C(O)(C(F)(F)F)C(F)(F)F)ccc2ccccc12)C1CCC1` [Cyclobutanecarboxylic acid [2-(2,2,2-trifluoro-1-hydroxy-1-trifluoromethyl-ethyl)-naphthalen-1-yl]-amide], 45 nM; that for `O=C(Nc1c(C(O)(C(F)(F)F)C(F)(F)F)ccc2ccccc12)C1CCCC1` [Cyclopentanecarboxylic acid [2-(2,2,2-trifluoro-1-hydroxy-1-trifluoromethyl-ethyl)-naphthalen-1-yl]-amide], 495 nM. The compound `O=C(Nc1c(C(O)(C(F)(F)F)C(F)(F)F)ccc2ccccc12)C1CC1` [Cyclopropanecarboxylic acid [2-(2,2,2-trifluoro-1-hydroxy-1-trifluoromethyl-ethyl)-naphthalen-1-yl]-amide] displayed an EC50 of 751 nM. Against the preceding compound, the EC50 is about 1.5-fold higher. With `O=C(Nc1c(C(O)(C(F)(F)F)C(F)(F)F)ccc2ccccc12)c1ccco1` [Furan-2-carboxylic acid [2-(2,2,2-trifluoro-1-hydroxy-1-trifluoromethyl-ethyl)-naphthalen-1-yl]-amide] the figure was 9 nM; with `O=C(Nc1c(C(O)(C(F)(F)F)C(F)(F)F)ccc2ccccc12)c1cccc(C(F)(F)F)c1` [N-[2-(2,2,2-Trifluoro-1-hydroxy-1-trifluoromethyl-ethyl)-naphthalen-1-yl]-3-trifluoromethyl-benzamide], 84 nM. The result for `O=C(Nc1c(C(O)(C(F)(F)F)C(F)(F)F)ccc2ccccc12)c1ccc(OC(F)(F)F)cc1` [N-[2-(2,2,2-Trifluoro-1-hydroxy-1-trifluoromethyl-ethyl)-naphthalen-1-yl]-4-trifluoromethoxy-benzamide] reads > 10000 nM; that for `O=C(Nc1c(C(O)(C(F)(F)F)C(F)(F)F)ccc2ccccc12)c1ccc(C(F)(F)F)cc1` [N-[2-(2,2,2-Trifluoro-1-hydroxy-1-trifluoromethyl-ethyl)-naphthalen-1-yl]-4-trifluoromethyl-benzamide], 160 nM.

Consider `CC(=O)Nc1c(C(O)(C(F)(F)F)C(F)(F)F)ccc2ccccc12` [N-[2-(2,2,2-Trifluoro-1-hydroxy-1-trifluoromethyl-ethyl)-naphthalen-1-yl]-acetamide], for which the EC50 was found to be 18 nM. Compared with the last compound, the EC50 is about 8.9-fold lower.
